Inhibition data for 1 compound are collected here from article PMC6309937 (Pain, 2019).

Assay type in all cases: cell-based
In experiment [1] the target is rCav2.2 (Rattus norvegicus, UniProt Q02294). The experiment is described as follows: whole-cell patch clamp, % inhibition of current at […]. The note with it: read-out: % inhibition at 20 μM.
For experiment [2], the target named is hCav3.2 (Homo sapiens, UniProt O95180). The experiment is described as follows: whole-cell patch clamp, % inhibition of current. The conditions noted are these: read-out: 20μM. A general note: Patch clamp records ionic current or voltage across a cell membrane.
hCav3.2, sequence (O95180 whole entry): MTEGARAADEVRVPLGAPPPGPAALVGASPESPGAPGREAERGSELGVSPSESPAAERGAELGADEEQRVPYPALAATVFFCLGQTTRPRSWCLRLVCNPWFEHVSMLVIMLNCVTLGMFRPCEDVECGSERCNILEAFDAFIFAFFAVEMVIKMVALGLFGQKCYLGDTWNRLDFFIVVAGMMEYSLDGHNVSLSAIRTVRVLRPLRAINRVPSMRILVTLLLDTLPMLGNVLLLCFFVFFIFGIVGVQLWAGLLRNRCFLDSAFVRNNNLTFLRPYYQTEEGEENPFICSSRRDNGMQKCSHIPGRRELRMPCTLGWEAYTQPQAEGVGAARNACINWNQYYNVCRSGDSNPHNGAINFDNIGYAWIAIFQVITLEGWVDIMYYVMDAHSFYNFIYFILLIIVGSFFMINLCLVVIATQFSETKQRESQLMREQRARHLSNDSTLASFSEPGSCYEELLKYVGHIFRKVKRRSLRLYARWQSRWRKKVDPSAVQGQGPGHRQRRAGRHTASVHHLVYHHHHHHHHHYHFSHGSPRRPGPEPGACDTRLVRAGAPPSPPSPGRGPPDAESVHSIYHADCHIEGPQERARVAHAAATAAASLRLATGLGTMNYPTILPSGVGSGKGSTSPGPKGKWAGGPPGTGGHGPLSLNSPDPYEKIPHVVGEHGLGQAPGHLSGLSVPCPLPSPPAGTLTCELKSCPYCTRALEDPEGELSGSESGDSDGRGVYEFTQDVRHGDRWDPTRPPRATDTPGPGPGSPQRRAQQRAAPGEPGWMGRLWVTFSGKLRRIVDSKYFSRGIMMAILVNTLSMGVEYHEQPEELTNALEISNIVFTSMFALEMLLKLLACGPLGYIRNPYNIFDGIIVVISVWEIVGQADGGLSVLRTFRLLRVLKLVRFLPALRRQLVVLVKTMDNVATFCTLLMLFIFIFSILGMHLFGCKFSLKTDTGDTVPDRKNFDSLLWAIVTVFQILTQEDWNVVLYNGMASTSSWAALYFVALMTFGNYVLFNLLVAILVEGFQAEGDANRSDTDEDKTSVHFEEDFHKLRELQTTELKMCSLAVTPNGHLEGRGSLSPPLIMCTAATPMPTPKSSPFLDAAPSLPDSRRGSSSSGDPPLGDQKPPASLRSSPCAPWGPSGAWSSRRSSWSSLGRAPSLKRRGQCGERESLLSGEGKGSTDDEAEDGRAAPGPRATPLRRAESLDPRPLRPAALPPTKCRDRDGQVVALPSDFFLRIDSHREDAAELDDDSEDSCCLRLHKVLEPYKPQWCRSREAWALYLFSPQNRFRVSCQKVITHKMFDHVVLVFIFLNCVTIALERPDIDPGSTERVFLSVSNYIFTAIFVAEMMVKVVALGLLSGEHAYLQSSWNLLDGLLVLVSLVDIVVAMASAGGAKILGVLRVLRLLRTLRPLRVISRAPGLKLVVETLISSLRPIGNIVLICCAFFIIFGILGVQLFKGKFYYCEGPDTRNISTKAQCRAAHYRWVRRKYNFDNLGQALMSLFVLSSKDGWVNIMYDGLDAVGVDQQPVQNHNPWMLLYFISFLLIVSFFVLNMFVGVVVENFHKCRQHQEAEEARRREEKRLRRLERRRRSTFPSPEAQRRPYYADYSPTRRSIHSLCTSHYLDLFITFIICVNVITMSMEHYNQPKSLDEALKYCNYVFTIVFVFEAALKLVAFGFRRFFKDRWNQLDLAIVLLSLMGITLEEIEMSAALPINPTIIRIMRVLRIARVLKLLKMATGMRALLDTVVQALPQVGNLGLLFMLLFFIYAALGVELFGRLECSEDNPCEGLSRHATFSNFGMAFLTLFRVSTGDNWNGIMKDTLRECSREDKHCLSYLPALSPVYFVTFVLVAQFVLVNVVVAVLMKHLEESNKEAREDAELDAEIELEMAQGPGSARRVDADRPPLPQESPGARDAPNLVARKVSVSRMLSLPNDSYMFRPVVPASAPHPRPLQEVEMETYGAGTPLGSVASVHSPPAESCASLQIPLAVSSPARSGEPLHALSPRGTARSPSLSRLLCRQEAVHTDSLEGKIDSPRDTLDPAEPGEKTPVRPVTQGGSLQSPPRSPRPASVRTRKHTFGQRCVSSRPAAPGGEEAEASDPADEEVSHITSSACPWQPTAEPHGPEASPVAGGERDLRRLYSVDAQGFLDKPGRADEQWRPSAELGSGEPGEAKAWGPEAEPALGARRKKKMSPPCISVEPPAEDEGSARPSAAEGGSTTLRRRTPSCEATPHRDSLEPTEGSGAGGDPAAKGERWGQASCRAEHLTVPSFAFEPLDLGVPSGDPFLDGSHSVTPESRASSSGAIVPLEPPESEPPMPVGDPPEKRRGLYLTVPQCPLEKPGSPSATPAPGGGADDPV
Experiment [3] has as its target hCav3.3 (Homo sapiens, UniProt Q9P0X4). The experiment is described as follows: whole-cell patch clamp, % inhibition of current. The conditions noted are these: read-out: 20μM.

rCav2.2, sequence (Q02294 whole entry): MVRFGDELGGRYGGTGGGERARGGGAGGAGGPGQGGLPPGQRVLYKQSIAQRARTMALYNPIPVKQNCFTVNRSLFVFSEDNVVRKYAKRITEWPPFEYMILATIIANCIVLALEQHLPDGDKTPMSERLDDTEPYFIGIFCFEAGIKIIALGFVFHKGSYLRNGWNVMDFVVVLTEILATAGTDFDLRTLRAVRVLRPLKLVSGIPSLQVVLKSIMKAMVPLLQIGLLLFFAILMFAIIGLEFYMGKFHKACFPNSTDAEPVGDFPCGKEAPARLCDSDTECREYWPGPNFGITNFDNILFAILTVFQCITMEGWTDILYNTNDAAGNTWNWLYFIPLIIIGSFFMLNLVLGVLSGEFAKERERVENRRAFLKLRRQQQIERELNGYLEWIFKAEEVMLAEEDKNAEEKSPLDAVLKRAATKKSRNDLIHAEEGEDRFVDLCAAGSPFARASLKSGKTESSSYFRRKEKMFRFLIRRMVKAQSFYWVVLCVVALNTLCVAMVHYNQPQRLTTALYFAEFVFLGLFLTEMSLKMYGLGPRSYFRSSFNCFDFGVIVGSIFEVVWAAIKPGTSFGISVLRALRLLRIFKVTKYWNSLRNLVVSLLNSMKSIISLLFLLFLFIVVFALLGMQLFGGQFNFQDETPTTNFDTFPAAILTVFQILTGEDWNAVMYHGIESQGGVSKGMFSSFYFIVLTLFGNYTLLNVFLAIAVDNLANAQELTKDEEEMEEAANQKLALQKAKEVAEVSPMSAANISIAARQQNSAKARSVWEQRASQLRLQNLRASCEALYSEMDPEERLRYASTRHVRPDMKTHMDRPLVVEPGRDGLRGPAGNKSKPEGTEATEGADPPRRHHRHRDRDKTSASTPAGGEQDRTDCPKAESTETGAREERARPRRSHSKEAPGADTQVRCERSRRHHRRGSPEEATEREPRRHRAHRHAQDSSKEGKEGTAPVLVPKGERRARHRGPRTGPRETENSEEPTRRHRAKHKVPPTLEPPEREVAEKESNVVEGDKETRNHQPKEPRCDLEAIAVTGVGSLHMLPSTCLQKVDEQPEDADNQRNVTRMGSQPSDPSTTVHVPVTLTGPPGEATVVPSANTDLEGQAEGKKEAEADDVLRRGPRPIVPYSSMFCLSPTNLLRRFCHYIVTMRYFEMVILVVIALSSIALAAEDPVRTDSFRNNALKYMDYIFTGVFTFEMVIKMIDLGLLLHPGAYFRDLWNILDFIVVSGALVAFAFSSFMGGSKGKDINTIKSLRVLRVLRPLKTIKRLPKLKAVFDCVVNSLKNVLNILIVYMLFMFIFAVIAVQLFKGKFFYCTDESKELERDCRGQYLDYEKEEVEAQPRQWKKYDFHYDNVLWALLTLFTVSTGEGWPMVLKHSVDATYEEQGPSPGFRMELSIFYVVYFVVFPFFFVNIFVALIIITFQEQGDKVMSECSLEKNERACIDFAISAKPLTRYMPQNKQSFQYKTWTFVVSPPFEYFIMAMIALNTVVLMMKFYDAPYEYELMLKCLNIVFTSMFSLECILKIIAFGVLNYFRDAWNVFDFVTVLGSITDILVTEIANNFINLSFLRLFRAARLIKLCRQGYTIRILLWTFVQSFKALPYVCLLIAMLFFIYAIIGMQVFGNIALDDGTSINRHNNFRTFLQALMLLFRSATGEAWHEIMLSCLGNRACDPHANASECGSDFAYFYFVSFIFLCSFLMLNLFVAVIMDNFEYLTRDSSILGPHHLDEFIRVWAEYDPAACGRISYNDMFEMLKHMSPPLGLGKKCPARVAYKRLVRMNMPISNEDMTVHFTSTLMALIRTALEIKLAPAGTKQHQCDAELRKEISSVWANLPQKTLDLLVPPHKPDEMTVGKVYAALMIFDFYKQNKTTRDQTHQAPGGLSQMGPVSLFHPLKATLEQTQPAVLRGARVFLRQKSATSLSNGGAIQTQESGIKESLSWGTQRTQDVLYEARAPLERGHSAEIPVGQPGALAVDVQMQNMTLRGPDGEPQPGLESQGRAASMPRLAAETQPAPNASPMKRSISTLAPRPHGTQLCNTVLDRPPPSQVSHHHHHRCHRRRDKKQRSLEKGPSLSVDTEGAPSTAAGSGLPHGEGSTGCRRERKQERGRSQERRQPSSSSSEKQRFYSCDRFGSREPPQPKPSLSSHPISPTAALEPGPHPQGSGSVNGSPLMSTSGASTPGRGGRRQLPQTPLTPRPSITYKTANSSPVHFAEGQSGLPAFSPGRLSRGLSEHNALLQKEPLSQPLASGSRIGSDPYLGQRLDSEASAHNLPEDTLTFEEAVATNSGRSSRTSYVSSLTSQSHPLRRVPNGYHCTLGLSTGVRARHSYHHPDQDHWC

`C=C(C)[C@@H]1CC[C@]2(C(=O)O)CC[C@]3(C)[C@H](CC[C@@H]4[C@@]5(C)CC[C@H](O)C(C)(C)[C@@H]5CC[C@]43C)[C@@H]12` [BA, betulinic acid]: the values for the inhibition at 20 µM in experiment [1], in experiment [2] and in experiment [3] were 69.8 ± 2.5%, 66.1 ± 4.6% and 31.4 ± 1.8%, respectively.
